Molecules are shown by their SMILES.

Chain of human IDO1 (P14902 whole entry): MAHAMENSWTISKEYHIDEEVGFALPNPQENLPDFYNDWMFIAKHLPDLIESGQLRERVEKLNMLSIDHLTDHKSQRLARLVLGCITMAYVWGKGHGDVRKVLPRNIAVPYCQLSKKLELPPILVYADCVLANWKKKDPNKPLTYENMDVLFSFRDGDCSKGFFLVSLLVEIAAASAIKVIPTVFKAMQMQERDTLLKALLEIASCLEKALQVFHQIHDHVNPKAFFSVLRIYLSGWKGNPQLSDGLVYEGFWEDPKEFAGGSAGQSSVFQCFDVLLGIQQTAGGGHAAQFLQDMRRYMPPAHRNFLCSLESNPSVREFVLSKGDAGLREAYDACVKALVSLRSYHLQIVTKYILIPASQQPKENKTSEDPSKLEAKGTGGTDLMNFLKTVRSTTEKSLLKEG

This experiment addresses human IDO1 (Homo sapiens, UniProt P14902). In words: Assessment of human IDO-1 inhibitory activity in HEK cells (human IDO1/HEK293 cells, kynurenine read-out with Ehrlich reagent, absorbance 490 nm). The experiment is classed as cell-based. Details: expressed in transfected cells. The following applies: HEK Human IDO-1 cellular assay. The procedure: Exemplary compounds were tested for inhibition of IDO activity.
Assessment of Human IDO-1 Inhibitory Activity in HEK Cells
HEK293 cells were transfected with a pCDNA-based mammalian expression vector harboring human IDO1 cDNA (NM 002164.2) by electroporation. They were cultured in medium (DMEM with 10% FBS) containing 1 mg/ml G418 for two weeks. Clones of HEK293 cells that stably expressed human IDO1 protein were selected and expanded for IDO inhibition assay.
The human IDO1/HEK293 cells were seeded at 10,000 cells per 50 μL per well with RPMI/phenol red free media contains 10% FBS in a 384-well black wall clear bottom tissue culture plate (Matrix Technologies LLC) 100 nL of certain concentration of compound was then added to each well using ECHO liquid handling systems. The cells were incubated for 20 hours in 37° C. incubator with 5% CO2.
The compound treatments were stopped by adding trichloroacetic acid (Sigma-Aldrich) to a final concentration at 0.2%. The cell plate was further incubated at 50° C. for 30 minute. The equal volume supernatant (20 μL) and 0.2% (w/v) Ehrlich reagent (4-dimethylaminobenzaldehyde, Sigma-Aldrich) in glacial acetic acid were mixed in a new clear bottom 384-well plate. This plate was then incubated at room temperature for 30 minute. The absorbance at 490 nm was measured on Envision plate reader.
Compound IC50 values were calculated using the counts of 500 nM of a reference standard treatment as one hundred percent inhibition, and counts of no compound but DMSO treatment as zero percent inhibition.
In general, IC50 refers to the point on the concentration scale where inhibition reaches its midpoint. Regarding `CCOc1ccc(NC(=O)Nc2cc(C(COC)CC(=O)O)ccc2N(CC(C)C)C2CCOCC2)c(F)c1` (single isomer, unassigned) [Example 1215, 3-(3-(3-(4-Ethoxy-2-fluorophenyl)ureido)-4-(isobutyl(tetrahydro-2H-pyran-4-yl)amino)phenyl)-4-methoxybutanoic acid], the IC50 was over 50 nM.
As to `CC(C)CN(c1ccc(C(CC(=O)O)C2CC2)cc1NC(=O)Nc1cncnc1)C1CCOCC1` (racemic) [Example 1206, (+/−)-3-Cyclopropyl-3-(4-(isobutyl(tetrahydro-2H-pyran-4-yl)amino)-3-(3-(pyrimidin-5-yl)ureido)phenyl)propanoic acid], the 50% inhibitory concentration (IC50) is over 50 nM.
The value for `CCC(CC(=O)O)c1cc(NC(=O)Nc2cnc(C)nc2)c(N(CC(C)C)C2CCCCC2)cc1F` (racemic) [Example 1125, (±)-3-(4-(Cyclohexyl(isobutyl)amino)-2-fluoro-5-(3-(2-methylpyrimidin-5-yl)ureido)phenyl)pentanoic acid] was under 5 nM.
The value for `CCC(CC(=O)O)c1ccc(N(CC(C)C)C2CCCCC2)c(Nc2ccc(Cl)c(OCC(F)F)c2)c1` (single isomer, unassigned) [Example 643, 3-(3-((4-chloro-3-(2,2-difluoroethoxy)phenyl)amino)-4-(cyclohexyl (isobutyl)amino)phenyl) pentanoic acid] was under 5 nM.
In the case of `CC[C@@H](CC(=O)O)c1ccc(N(CC(C)C)CC(C)C)c(Nc2ccc(Cl)cc2)c1` (single isomer, unassigned) [Example 11], the IC50 was under 50 nM.
To `CCOc1ncc(Nc2cc(C(C)(C)CC(=O)O)ccc2N(CC)C2CCC(C)(O)CC2)cn1` (centres unmarked) [Example 3, 3-(3-((2-ethoxypyrimidin-5-yl)amino)-4-(ethyl(4-hydroxy-4-methylcyclohexyl)amino)phenyl)-3-methylbutanoic acid] belongs over 50 nM.
To `CC(CC(=O)O)c1ccc(N2C[C@@H](C)O[C@@H](C)C2)c(Nc2ccc(Cl)cc2)c1` (single isomer, unassigned) [Example 745] belongs under 50 nM.
Regarding `CCc1cnc(Nc2cc([C@@H](CC)CC(=O)O)ccc2N(CC(C)(C)O)C2CCCCC2)nc1` (single isomer, unassigned) [Example 230], the IC50 was under 50 nM.
To `CC[C@H](CC(=O)O)c1ccc(N(CC)C2CCCCC2)c(Nc2ccc(OC(F)F)cc2)c1` (single isomer, unassigned) [Example 290] belongs under 5 nM.
The value for `COCC(CC(=O)O)c1ccc(N(CC2CC2)C2CCOCC2)c(Nc2ccc(Cl)c(OCC(F)F)c2)c1` (single isomer, unassigned) [Example 684, 3-(3-((4-chloro-3-(2,2-difluoroethoxy)phenyl)amino)-4-((cyclopropylmethyl) (tetrahydro-2H-pyran-4-yl)amino)phenyl)-4-methoxybutanoic acid] was under 50 nM; that for `CCC(CC(=O)O)c1ccc(N(CC(C)C)C2CCCCC2)c(Nc2ccc3nc(C)sc3c2)c1` (single isomer, unassigned) [Example 305, 3-(4-(cyclohexyl(isobutyl)amino)-3-((2-methylbenzo [d]thiazol-6-yl)amino)phenyl)pentanoic acid] was under 5 nM.
To `CC[C@@H](CC(=O)O)c1ccc(N2CCC[C@H]2C(C)(C)F)c(Nc2ccc(Cl)cc2)c1` (single isomer, unassigned) [Example 788] belongs under 5 nM; to `CCC(CC(=O)O)c1cc(F)c(N(CC(C)C)CC(C)C)c(NC(=O)Cc2ccc(C)cc2F)c1` (racemic) [Example 1083], under 5 nM.
On to `CCN(c1ccc(C(C)CC(=O)O)cc1Nc1ccc2c(c1)OC(F)(F)O2)C1CCOCC1` (single isomer, unassigned) [Example 616, 3-(3-((2,2-difluorobenzo[d] [1,3]dioxol-5-yl)amino)-4-(ethyl(tetrahydro-2H-pyran-4-yl)amino)phenyl)butanoic acid], for which the concentration for half-maximal inhibition (IC50) was under 5 nM.
In the case of `COCC(CC(=O)O)c1cc(F)c(N(CC(C)C)C2CCCCC2)c(NC(=O)Nc2ccc(Cl)cc2)c1` (single isomer, unassigned) [Example 1162, 3-(3-(3-(4-chlorophenyl)ureido)-4-(cyclohexyl(isobutyl)amino)-5-fluorophenyl)-4-methoxybutanoic acid], the concentration for half-maximal inhibition (IC50) was under 5 nM.
Take `Cc1nc2ccc(Nc3cc(C(C)(C)CC(=O)O)ccc3N(CC(C)C)CC(C)C)cc2s1` [Example 146, 3-(4-(diisobutylamino)-3-((2-methylbenzo[d]thiazol-6-yl)amino)phenyl)-3-methylbutanoic acid]: the IC50 was over 50 nM.
To `CCC(CC(=O)O)c1cc(NC(=O)Nc2ccc(C)cc2F)c(N(CC(C)C)C2CCCCC2)cc1F` (single isomer, unassigned) [Example 1120, 3-(4-(Cyclohexyl(isobutyl)amino)-2-fluoro-5-(3-(2-fluoro-4-methylphenyl)ureido)phenyl)pentanoic acid] belongs under 5 nM; to `CCOc1ncc(Nc2cc(C(CC)CC(=O)O)ccc2N(CC2CC2)C(C)C)cn1` (single isomer, unassigned) [Example 718, 3-(4-((cyclopropylmethyl) (isopropyl)amino)-3-((2-ethoxypyrimidin-5-yl)amino)phenyl)pentanoic acid], under 50 nM; to `CCN(c1ccc(C(C)(C)CC(=O)O)cc1Nc1cnc(OCC2CC2)nc1)C1CCOCC1` [Example 163, 3-(3-((2-(cyclopropylmethoxy)pyrimidin-5-yl)amino)-4-(ethyl (tetrahydro-2H-pyran-4-yl)amino)phenyl)-3-methylbutanoic acid], under 5 nM.
`CC[C@H](CC(=O)O)c1ccc(N2CCC[C@H]2C(C)(C)O)c(NC(=O)Nc2ccc(C)cc2)c1` (single isomer, unassigned) [Example 767]: the IC50 is over 50 nM.
Turning to `COCC(CC(=O)O)c1cc(F)c(N(CC(C)C)CC(C)C)c(Nc2ccc3c(c2)OC(F)(F)O3)c1` (single isomer, unassigned) [Example 927, 3-(3-((2,2-difluorobenzo[d] [1,3]dioxol-5-yl)amino)-4-(diisobutylamino)-5-fluorophenyl)-4-methoxybutanoic acid.], the IC50 is under 50 nM.
Turning to `CCOc1ccc(NC(=O)Nc2cc(C(COC)CC(=O)O)cc(F)c2N(CC(C)C)CC(C)C)c(F)c1` (single isomer, unassigned) [Example 1191, 3-(4-(Diisobutylamino)-3-(3-(4-ethoxy-2-fluorophenyl)ureido)-5-fluorophenyl)-4-methoxybutanoic acid], the half-maximal inhibitory concentration (IC50) was under 5 nM.
In the case of `COCC(CC(=O)O)c1cc(F)c(N(CC(C)C)C2CCCCC2)c(NC(=O)Cc2ccc(C)cc2)c1` (single isomer, unassigned) [Example 1170, 3-(4-(cyclohexyl(isobutyl)amino)-3-fluoro-5-(2-(p-tolyl)acetamido)phenyl)-4-methoxybutanoic acid], the IC50 was under 50 nM.
The value for `CCc1ccc(Nc2cc(C(CC)CC(=O)O)ccc2N2CCC[C@H]2C(C)(C)O)cc1` (single isomer, unassigned) [Example 819] was over 50 nM.
To `CCc1ccc(Nc2cc([C@H](CC)CC(=O)O)ccc2N(CC)C2CCOCC2)cc1` (single isomer, unassigned) [Example 517] belongs under 5 nM; to `CC[C@@H](CC(=O)O)c1ccc(N(CC)C2CCOCC2)c(Nc2ccc(OCC3CC3)cc2)c1` (single isomer, unassigned) [Example 476], under 5 nM.
Regarding `CCCN(CC1CC1)c1ccc(C(CC)CC(=O)O)cc1Nc1cnc(OCC)nc1` (single isomer, unassigned) [Example 657, 3-(4-((cyclopropylmethyl) (propyl)amino)-3-((2-ethoxypyrimidin-5-yl)amino)phenyl)pentanoic acid], the concentration for half-maximal inhibition (IC50) was under 50 nM.
To `COc1ncc(Nc2cc(C(C)(C)CC(=O)O)ccc2N2C[C@@H](C)O[C@@H](C)C2)cn1` [Example 735, 3-(4-((2S,6R)-2,6-dimethylmorpholino)-3-((2-methoxypyrimidin-5-yl)amino)phenyl)-3-methylbutanoic acid] belongs over 50 nM.
The value for `CCOc1ncc(Nc2cc(C(CC)CC(=O)O)ccc2N(CC)C2CCCOC2)cn1` (single isomer, unassigned) [Example 69, 3-(3-((2-ethoxypyrimidin-5-yl)amino)-4-(ethyl(tetrahydro-2H-pyran-3-yl)amino)phenyl)pentanoic acid] was under 5 nM.
For the compound `CCC(CC(=O)O)c1ccc(N2CCOC[C@H]2C(C)C)c(Nc2cnc(OC)nc2)c1` (single isomer, unassigned) [Example 906], the half-inhibitory concentration (IC50) is under 50 nM.
On to `CCC(CC(=O)O)c1cc(NC(=O)Nc2ccc(C)cc2)c(N(CC(C)C)C2CCCCC2)cc1F` (racemic) [Example 951, (+/−)-3-(4-(Cyclohexyl(isobutyl)amino)-2-fluoro-5-(3-(p-tolyl)ureido)phenyl)pentanoic acid], for which the IC50 is under 5 nM.
The value for `Cc1ccc(NC(=O)Nc2cc(C(C)CC(=O)O)c(F)cc2N(CC(C)C)C2CCCCC2)cc1` (single isomer, unassigned) [Example 956, 3-(4-(Cyclohexyl(isobutyl)amino)-2-fluoro-5-(3-(p-tolyl)ureido)phenyl)butanoic acid] was under 5 nM.
